Measurements taken from patent US12264156B2, “Compounds and pharmaceutical compositions thereof for the treatment of diseases” (GALAPAGOS NV, priority 2018, dated 2025).

Experiments:
Format in all cases: biochemical
Conditions in all cases: ADP-Glo SIK kinase assay
[1] = molecular target: T1, SIK3 (Homo sapiens, UniProt Q9Y2K2); experiment: ADP-Glo kinase assay, SIK3
T1 construct: purchased SignalChem S12-11G-100
Summary of the method: (§1)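 ADP-Glo luminescent assay of ADP formed by SIK2 or SIK3 with substrate after ATP addition, 120 min at RT. Remaining ATP depleted 40 min, then ADP converted to ATP and read by luciferase luminescence after 30 min. Controls: 1% DMSO and 10 μM staurosporine (final).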

[2] = molecular target: T2, SIK1 (Homo sapiens, UniProt P57059); experiment: ADP-Glo kinase assay, SIK1
T2 construct: purchased Carna Biosciences 02-131
T2 sequence (P57059 whole entry): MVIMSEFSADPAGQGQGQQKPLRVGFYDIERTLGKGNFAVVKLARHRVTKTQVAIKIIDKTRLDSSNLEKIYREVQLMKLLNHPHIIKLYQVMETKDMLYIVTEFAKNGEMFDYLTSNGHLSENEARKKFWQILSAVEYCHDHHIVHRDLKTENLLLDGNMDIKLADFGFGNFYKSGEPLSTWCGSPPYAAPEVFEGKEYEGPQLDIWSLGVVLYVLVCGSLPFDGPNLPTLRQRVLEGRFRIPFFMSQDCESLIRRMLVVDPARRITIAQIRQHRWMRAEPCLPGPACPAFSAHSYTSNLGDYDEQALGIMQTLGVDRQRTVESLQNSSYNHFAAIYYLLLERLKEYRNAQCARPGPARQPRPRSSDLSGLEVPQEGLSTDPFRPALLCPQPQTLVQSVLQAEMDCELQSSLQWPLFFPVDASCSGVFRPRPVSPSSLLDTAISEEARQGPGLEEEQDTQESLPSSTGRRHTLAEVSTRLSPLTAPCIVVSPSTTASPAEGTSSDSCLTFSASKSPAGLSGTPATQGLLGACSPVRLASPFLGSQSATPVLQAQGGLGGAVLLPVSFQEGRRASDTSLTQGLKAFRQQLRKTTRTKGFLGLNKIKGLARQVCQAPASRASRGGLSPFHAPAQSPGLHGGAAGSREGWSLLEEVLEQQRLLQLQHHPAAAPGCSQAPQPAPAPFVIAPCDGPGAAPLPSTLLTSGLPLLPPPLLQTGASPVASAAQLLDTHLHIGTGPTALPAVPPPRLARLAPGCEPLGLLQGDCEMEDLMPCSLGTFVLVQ
Summary of the method: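 ADP-Glo, RT throughout. Enz/substrate + ATP, 120 min; ADP-Glo reagent 40 min (ATP depletion); detection reagent 30 min; luminescence read. Neg ctrl 1% DMSO, pos ctrl 10 μM staurosporine, final concs.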

[3] = molecular target: T3, SIK2 (Homo sapiens, UniProt Q9H0K1); experiment: ADP-Glo kinase assay, SIK2
T3 construct: purchased ThermoFisher Scientific PV4792
T3 sequence (Q9H0K1 whole entry): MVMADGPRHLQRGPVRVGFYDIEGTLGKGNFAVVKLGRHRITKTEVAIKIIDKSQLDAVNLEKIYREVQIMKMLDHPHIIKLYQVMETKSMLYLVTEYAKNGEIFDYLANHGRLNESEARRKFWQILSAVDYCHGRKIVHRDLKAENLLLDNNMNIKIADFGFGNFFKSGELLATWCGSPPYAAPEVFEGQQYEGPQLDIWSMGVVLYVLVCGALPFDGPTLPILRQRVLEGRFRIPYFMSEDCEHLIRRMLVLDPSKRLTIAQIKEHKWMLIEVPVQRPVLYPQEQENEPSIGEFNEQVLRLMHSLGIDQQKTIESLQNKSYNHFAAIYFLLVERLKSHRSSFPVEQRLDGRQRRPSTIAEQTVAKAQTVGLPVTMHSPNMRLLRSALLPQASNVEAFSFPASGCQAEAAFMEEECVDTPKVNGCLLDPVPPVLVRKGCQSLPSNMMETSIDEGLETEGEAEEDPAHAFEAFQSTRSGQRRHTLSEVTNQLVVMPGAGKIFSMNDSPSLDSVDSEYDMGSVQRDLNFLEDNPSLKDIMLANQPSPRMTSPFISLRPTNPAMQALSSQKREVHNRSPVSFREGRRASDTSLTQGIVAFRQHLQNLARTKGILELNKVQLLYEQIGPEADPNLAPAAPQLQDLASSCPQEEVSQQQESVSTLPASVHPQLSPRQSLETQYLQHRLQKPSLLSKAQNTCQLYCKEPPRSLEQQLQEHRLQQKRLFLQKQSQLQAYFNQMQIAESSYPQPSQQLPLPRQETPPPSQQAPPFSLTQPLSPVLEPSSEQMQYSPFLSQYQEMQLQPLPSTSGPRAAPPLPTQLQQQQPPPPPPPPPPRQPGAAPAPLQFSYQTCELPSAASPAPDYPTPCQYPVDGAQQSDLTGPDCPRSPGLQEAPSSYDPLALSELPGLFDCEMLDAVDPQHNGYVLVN
Summary of the method: as §1

T1 sequence (Q9Y2K2 whole entry): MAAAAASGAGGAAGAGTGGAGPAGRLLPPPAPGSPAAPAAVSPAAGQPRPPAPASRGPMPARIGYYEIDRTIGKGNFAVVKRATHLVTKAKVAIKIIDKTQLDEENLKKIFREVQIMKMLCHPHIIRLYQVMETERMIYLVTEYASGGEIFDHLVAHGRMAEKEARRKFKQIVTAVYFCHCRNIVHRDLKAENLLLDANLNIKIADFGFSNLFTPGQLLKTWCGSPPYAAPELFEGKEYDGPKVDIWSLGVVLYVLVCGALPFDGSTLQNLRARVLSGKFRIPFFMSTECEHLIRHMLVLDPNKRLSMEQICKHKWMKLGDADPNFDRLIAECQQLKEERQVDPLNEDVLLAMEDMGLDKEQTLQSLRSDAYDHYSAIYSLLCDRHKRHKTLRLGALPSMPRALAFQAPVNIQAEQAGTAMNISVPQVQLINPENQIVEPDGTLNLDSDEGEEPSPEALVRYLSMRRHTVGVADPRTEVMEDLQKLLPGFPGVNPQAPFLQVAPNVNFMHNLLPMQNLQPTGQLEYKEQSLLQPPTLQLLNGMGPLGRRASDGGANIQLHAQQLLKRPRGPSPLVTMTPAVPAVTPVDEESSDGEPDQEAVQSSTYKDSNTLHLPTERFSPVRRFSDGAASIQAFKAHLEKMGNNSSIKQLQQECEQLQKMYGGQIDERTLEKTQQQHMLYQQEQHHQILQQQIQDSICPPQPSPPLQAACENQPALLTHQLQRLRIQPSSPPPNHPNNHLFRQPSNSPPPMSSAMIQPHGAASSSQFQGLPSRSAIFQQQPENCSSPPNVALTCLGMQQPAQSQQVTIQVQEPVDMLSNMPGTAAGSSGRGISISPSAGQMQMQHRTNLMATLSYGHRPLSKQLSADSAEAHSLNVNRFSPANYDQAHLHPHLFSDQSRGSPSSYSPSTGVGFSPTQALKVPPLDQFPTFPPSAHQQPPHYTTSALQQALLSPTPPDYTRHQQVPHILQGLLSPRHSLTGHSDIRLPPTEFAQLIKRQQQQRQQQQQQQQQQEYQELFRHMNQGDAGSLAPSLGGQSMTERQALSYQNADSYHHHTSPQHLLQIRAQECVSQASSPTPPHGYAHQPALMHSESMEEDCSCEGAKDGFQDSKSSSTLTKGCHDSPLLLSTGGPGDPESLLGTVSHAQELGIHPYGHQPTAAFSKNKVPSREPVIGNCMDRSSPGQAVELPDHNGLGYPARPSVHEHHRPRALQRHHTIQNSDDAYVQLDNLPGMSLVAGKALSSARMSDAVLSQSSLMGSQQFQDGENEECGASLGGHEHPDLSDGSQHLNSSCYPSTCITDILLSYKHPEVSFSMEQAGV

SMILES	IC50 [1] [nM]	IC50 [2] [nM]	IC50 [3] [nM]
COc1cc(-c2cnc3cc(OCC4(N)CC4)ccn23)cc(OC(F)F)c1C(=O)NC1CC1 [compound 171, 4-[7-[(1-aminocyclopropyl)methoxy]imidazo[1,2-a]pyridin-3-yl]-N-cyclopropyl-2-(difluoromethoxy)-6-methoxy-benzamide]	0.01 to 10	10 to 100	0.01 to 10
COc1cc(-c2cnc3cc(OCC4(N)CCC4)ccn23)cc(OC(F)F)c1C(=O)NC1CC1 [compound 174, 4-[7-[(1-aminocyclobutyl)methoxy]imidazo[1,2-a]pyridin-3-yl]-N-cyclopropyl-2-(difluoromethoxy)-6-methoxy-benzamide]	0.01 to 10	100 to 500	0.01 to 10
COc1cc(-c2cnc3cc(OCc4nccn4C(C)C)ccn23)cc(OC(F)F)c1C(=O)NC1CC1 [compound 175, N-cyclopropyl-2-(difluoromethoxy)-4-[7-[(1-isopropylimidazol-2-yl)methoxy]imidazo[1,2-a]pyridin-3-yl]-6-methoxy-benzamide]	0.01 to 10	100 to 500	0.01 to 10
COc1cc(-c2cnc3cc(OCC4(N)CCOC4)ccn23)cc(OC(F)F)c1C(=O)NC1CC1 (stereo not drawn) [compound 176, 4-[7-[(3-aminotetrahydrofuran-3-yl)methoxy]imidazo[1,2-a]pyridin-3-yl]-N-cyclopropyl-2-(difluoromethoxy)-6-methoxy-benzamide]	0.01 to 10	10 to 100	0.01 to 10
COc1cc(-c2cnc3cc(OCCN4CCOCC4C#N)ccn23)cc(OC(F)F)c1C(=O)NC1CC1 (stereo not drawn) [compound 178, 4-[7-[2-(3-cyanomorpholin-4-yl)ethoxy]imidazo[1,2-a]pyridin-3-yl]-N-cyclopropyl-2-(difluoromethoxy)-6-methoxy-benzamide]	0.01 to 10	10 to 100	0.01 to 10
COc1cc(-c2cnc3cc(OCCN4CCOC(C(F)(F)F)C4)ccn23)cc(OC(F)F)c1C(=O)NC1CC1 (stereo not drawn) [compound 179, N-cyclopropyl-2-(difluoromethoxy)-6-methoxy-4-[7-[2-[2-(trifluoromethyl)morpholin-4-yl]ethoxy]imidazo[1,2-a]pyridin-3-yl]benzamide]	0.01 to 10	10 to 100	0.01 to 10
COc1cc(-c2cnc3cc(OCCN4CCC(F)(F)C4)ccn23)cc(OC(F)F)c1C(=O)NC1CC1 [compound 180, N-cyclopropyl-2-(difluoromethoxy)-4-[7-[2-(3,3-difluoropyrrolidin-1-yl)ethoxy]imidazo[1,2-a]pyridin-3-yl]-6-methoxy-benzamide]	0.01 to 10	10 to 100	0.01 to 10
CNCCOc1ccn2c(-c3cc4c(c(OC)c3)C(=O)N(CC(F)(F)F)CC4)cnc2c1 [compound 185, 8-methoxy-6-[7-[2-(methylamino)ethoxy]imidazo[1,2-a]pyridin-3-yl]-2-(2,2,2-trifluoroethyl)-3,4-dihydroisoquinolin-1-one]	0.01 to 10	100 to 500	0.01 to 10
COc1cc(-c2cnc3cc(OCCN4CC(F)(F)C4)ccn23)cc(OC(F)F)c1C(=O)NC1CC1 [compound 186, N-cyclopropyl-4-[7-[2-(3,3-difluoroazetidin-1-yl)ethoxy]imidazo[1,2-a]pyridin-3-yl]-2-(difluoromethoxy)-6-methoxy-benzamide]	0.01 to 10	10 to 100	0.01 to 10
COc1cc(-c2cnc3cc(OCCN4CCOCC4(C)C)ccn23)cc(OC(F)F)c1C(=O)NC1CC1 [compound 192, N-cyclopropyl-2-(difluoromethoxy)-4-[7-[2-(3,3-dimethylmorpholin-4-yl)ethoxy]imidazo[1,2-a]pyridin-3-yl]-6-methoxy-benzamide]	0.01 to 10	10 to 100	0.01 to 10
COc1cc(-c2cnc3cc(OCCN4CCOC(C)(C)C4)ccn23)cc(OC(F)F)c1C(=O)NC1CC1 [compound 194, N-cyclopropyl-2-(difluoromethoxy)-4-[7-[2-(2,2-dimethylmorpholin-4-yl)ethoxy]imidazo[1,2-a]pyridin-3-yl]-6-methoxy-benzamide]	0.01 to 10	10 to 100	0.01 to 10
COc1cc(-c2cnc3cc(OCCN4CC5CCC(C4)O5)ccn23)cc(OC(F)F)c1C(=O)NC1CC1 [compound 195, N-cyclopropyl-2-(difluoromethoxy)-6-methoxy-4-[7-[2-(8-oxa-3-azabicyclo [3.2.1]octan-3-yl)ethoxy]imidazo[1,2-a]pyridin-3-yl]benzamide]	0.01 to 10	10 to 100	0.01 to 10
COc1cc(-c2cnc3cc(OCCN4CCOC(C5CC5)C4)ccn23)cc(OC(F)F)c1C(=O)NC1CC1 (stereo not drawn) [compound 196, N-cyclopropyl-4-[7-[2-(2-cyclopropylmorpholin-4-yl)ethoxy]imidazo[1,2-a]pyridin-3-yl]-2-(difluoromethoxy)-6-methoxy-benzamide]	0.01 to 10	10 to 100	0.01 to 10
COc1cc(-c2cnc3cc(OCc4cc(C)nn4C)ccn23)cc(OC(F)F)c1C(=O)NC1CC1 [compound 198, N-cyclopropyl-2-(difluoromethoxy)-4-[7-[(2,5-dimethylpyrazol-3-yl)methoxy]imidazo[1,2-a]pyridin-3-yl]-6-methoxy-benzamide]	0.01 to 10	10 to 100	0.01 to 10
COc1cc(-c2cnc3cc(OCc4cnn(C)c4)ccn23)cc(OC(F)F)c1C(=O)NC1CC1 [compound 199, N-cyclopropyl-2-(difluoromethoxy)-6-methoxy-4-[7-[(1-methylpyrazol-4-yl)methoxy]imidazo[1,2-a]pyridin-3-yl]benzamide]	0.01 to 10	10 to 100	0.01 to 10
COc1cc(-c2cnc3cc(OCc4ccn(C)n4)ccn23)cc(OC(F)F)c1C(=O)NC1CC1 [compound 200, N-cyclopropyl-2-(difluoromethoxy)-6-methoxy-4-[7-[(1-methylpyrazol-3-yl)methoxy]imidazo[1,2-a]pyridin-3-yl]benzamide]	0.01 to 10	10 to 100	0.01 to 10
COc1cc(-c2cnc3cc(OCC4COCCN4C)ccn23)cc(OC(F)F)c1C(=O)NC1CC1 (stereo not drawn) [compound 201, N-cyclopropyl-2-(difluoromethoxy)-6-methoxy-4-[7-[(4-methylmorpholin-3-yl)methoxy]imidazo[1,2-a]pyridin-3-yl]benzamide]	0.01 to 10	10 to 100	10 to 100
COc1cc(-c2cnc3cc(OCC(C)N(C)C)ccn23)cc(OC(F)F)c1C(=O)NC1CC1 (stereo not drawn) [compound 202, N-cyclopropyl-2-(difluoromethoxy)-4-[7-[2-(dimethylamino)propoxy]imidazo[1,2-a]pyridin-3-yl]-6-methoxy-benzamide]	0.01 to 10	100 to 500	0.01 to 10
CCC(COc1ccn2c(-c3cc(OC)c(C(=O)NC4CC4)c(OC(F)F)c3)cnc2c1)N(C)C (stereo not drawn) [compound 203]	0.01 to 10	100 to 500	10 to 100
COc1cc(-c2cnc3cc(OCCc4cnn(C)c4)ccn23)cc(OC(F)F)c1C(=O)NC1CC1 [compound 204, N-cyclopropyl-2-(difluoromethoxy)-6-methoxy-4-[7-[2-(1-methylpyrazol-4-yl)ethoxy]imidazo[1,2-a]pyridin-3-yl]benzamide]	0.01 to 10	0.01 to 10	0.01 to 10
COc1cc(-c2cnc3cc(OCc4nnc(C5CC5)o4)ccn23)cc(OC(F)F)c1C(=O)NC1CC1 [compound 205, N-cyclopropyl-4-[7-[(5-cyclopropyl-1,3,4-oxadiazol-2-yl)methoxy]imidazo[1,2-a]pyridin-3-yl]-2-(difluoromethoxy)-6-methoxy-benzamide]	0.01 to 10	0.01 to 10	0.01 to 10
COc1cc(-c2cnc3cc(OCC4(F)CNC4)ccn23)cc(OC(F)F)c1C(=O)NC1CC1 [compound 207, N-cyclopropyl-2-(difluoromethoxy)-4-[7-[(3-fluoroazetidin-3-yl)methoxy]imidazo[1,2-a]pyridin-3-yl]-6-methoxy-benzamide]	0.01 to 10	10 to 100	0.01 to 10
COc1cc(-c2cnc3cc(OCC4(C)CNC4)ccn23)cc(OC(F)F)c1C(=O)NC1CC1 [compound 208, N-cyclopropyl-2-(difluoromethoxy)-6-methoxy-4-[7-[(3-methylazetidin-3-yl)methoxy]imidazo[1,2-a]pyridin-3-yl]benzamide]	0.01 to 10	10 to 100	0.01 to 10
COc1cc(-c2cnc3cc(OCCN4CCOCC4)ccn23)cc2cc[nH]c(=O)c12 [compound 210, 8-methoxy-6-[7-(2-morpholinoethoxy)imidazo [1,2-a]pyridin-3-yl]-2H-isoquinolin-1-one]	10 to 100	10 to 100	0.01 to 10
COc1cc(-c2cnc3cc(OCCN4CCCC(F)(F)C4)ccn23)cc(OC(F)F)c1C(=O)NC1CC1 [compound 211, N-cyclopropyl-2-(difluoromethoxy)-4-[7-[2-(3,3-difluoro-1-piperidyl)ethoxy]imidazo [1,2-a]pyridin-3-yl]-6-methoxy-benzamide]	0.01 to 10	0.01 to 10	0.01 to 10
COc1cc(-c2cnc3cc(OCCN4CCCC(F)C4)ccn23)cc(OC(F)F)c1C(=O)NC1CC1 (stereo not drawn) [compound 212, N-cyclopropyl-2-(difluoromethoxy)-4-[7-[2-(3-fluoro-1-piperidyl)ethoxy]imidazo[1,2-a]pyridin-3-yl]-6-methoxy-benzamide]	0.01 to 10	10 to 100	0.01 to 10
